This note sets out measurements from patent US20050176705A1, “Compounds useful in the treatment of cns disorders” (priority 2000, published 2005).

Structures are written as SMILES. Structures can show the parent of a compound that is named as a salt.

In the first test the target is T1, human cloned 5-HT6 receptors (Homo sapiens, UniProt P50406).
T1 construct: expressed in transfected cells
T1 sequence (P50406 whole entry): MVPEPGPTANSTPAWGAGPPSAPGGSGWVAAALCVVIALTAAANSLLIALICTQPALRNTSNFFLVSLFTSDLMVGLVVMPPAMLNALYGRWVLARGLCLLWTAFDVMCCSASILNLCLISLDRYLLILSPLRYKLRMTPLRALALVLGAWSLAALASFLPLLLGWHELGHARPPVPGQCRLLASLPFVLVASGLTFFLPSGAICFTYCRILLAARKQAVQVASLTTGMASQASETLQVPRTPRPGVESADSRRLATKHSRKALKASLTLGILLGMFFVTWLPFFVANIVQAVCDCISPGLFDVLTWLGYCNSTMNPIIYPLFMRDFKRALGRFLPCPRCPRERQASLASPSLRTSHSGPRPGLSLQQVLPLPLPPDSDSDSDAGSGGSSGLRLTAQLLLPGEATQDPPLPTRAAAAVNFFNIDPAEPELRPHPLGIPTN
Put plainly: 5-HT6 receptor affinity (procedures outlined in WO 98/27081). It is filed as binding.
Details: not given
`O=S(=O)(c1cccc(F)c1)n1ccc2c(N3CCNCC3)cccc21` [Example E22] had a Ki of 0.2 to 1.58 nM.
On the same count and under the same terms, for `O=S(=O)(c1cccc2nsnc12)n1ccc2c(N3CCNCC3)cccc21` [Example E40] the value was 0.2 to 1.58 nM.
Consider `O=S(=O)(c1c(Cl)cccc1Cl)n1ccc2c(N3CCNCC3)cccc21` [Example E70], for which the Ki is 0.2 to 1.58 nM.
Same read-out and setting: for `COc1ccc2c(ccn2S(=O)(=O)c2ccc(C)cc2)c1N1CCNCC1` [Example E80, 5-Methoxy-4-(piperazin-1-yl)-1-(toluene-4-sulfonyl)-1H-indole] the value was 0.2 to 1.58 nM.
Still for that read-out and setting: for `CN1CCN(c2cccc3c2ccn3S(=O)(=O)c2cccs2)CC1` [Example E98] the value was 0.2 to 1.58 nM; for `O=S(=O)(c1cccc(Br)c1)n1ccc2c(N3CCNCC3)cccc21` [Example E107], 0.2 to 1.58 nM.
The same measure, in the same setting: for `O=S(=O)(c1cccc(Cl)c1)n1ccc2c(N3CCNCC3)cccc21` [Example E111] the value was 0.2 to 1.58 nM.
In turn, `Cc1ccc(S(=O)(=O)n2ccc3c(N4CCNCC4)cccc32)cc1Cl` [Example E112] registered a Ki of 0.2 to 1.58 nM.
The same measure, in the same setting: the figure for `O=S(=O)(c1ccc(Br)cc1)n1ccc2c(N3CCNCC3)cccc21` [Example E113] is 0.2 to 1.58 nM; for `O=[N+]([O-])c1cccc(S(=O)(=O)n2ccc3c(N4CCNCC4)cccc32)c1` [Example E119] it is 0.2 to 1.58 nM; for `O=S(=O)(c1cccs1)n1ccc2c(N3CCNCC3)cccc21` [Example E121] it is 0.2 to 1.58 nM.
`O=S(=O)(c1ccc(F)c(Cl)c1)n1ccc2c(N3CCNCC3)cccc21` [Example E123] showed a Ki of 0.2 to 1.58 nM.
The molecule `O=S(=O)(c1ccccc1Br)n1ccc2c(N3CCNCC3)cccc21` [Example E126] had a Ki of 0.2 to 1.58 nM.
The molecule `O=S(=O)(c1cc(F)cc(F)c1Cl)n1ccc2c(N3CCNCC3)cccc21` [Example E131, 1-(2-Chloro-3,5-difluorobenzenesulfonyl)-4-piperazin-1-yl-1H-indole] had a Ki of 0.2 to 1.58 nM.
As for `O=S(=O)(c1cccc(Cl)c1)n1ccc2c(N3CCNCC3)c(Cl)ccc21` [Example E132, 5-Chloro-1-(3-chlorobenzenesulfonyl)-4-piperazin-1-yl-1H-indole hydrochloride], the Ki lay in the range of 0.2 to 1.58 nM.
For the molecule `O=S(=O)(c1ccccc1)n1ccc2c(N3CCNCC3)c(Cl)ccc21` [Example E135, 1-(Benzenesulfonyl)-5-chloro-4-piperazin-1-yl-1H-indole hydrochloride], the Ki was 0.2 to 1.58 nM.
The same measure, in the same setting: for `O=S(=O)(c1ccccc1Br)n1ccc2c(N3CCNCC3)c(Cl)ccc21` [Example E137, 1-(2-Bromobenzenesulfonyl)-5-chloro-4-piperazin-1-yl-1H-indole hydrochloride] the value was 0.2 to 1.58 nM; for `Cc1cccc(S(=O)(=O)n2ccc3c(N4CCNCC4)c(Cl)ccc32)c1` [Example E140, 5-Chloro-1-(3-methylbenzenesulfonyl)-4-piperazin-4-yl-1H-indole hydrochloride], 0.2 to 1.58 nM; for `O=S(=O)(c1ccccn1)n1ccc2c(N3CCNCC3)c(Cl)ccc21` [Example E149, 5-Chloro-1-(pyridine-2-sulfonyl)-4-piperazin-4-yl-1H-indole hydrochloride], 0.2 to 1.58 nM.
Still for that read-out and setting: for `O=S(=O)(c1cccc(Cl)c1)n1cc(Cl)c2c(N3CCNCC3)cccc21` [Example E151, 3-Chloro-1-(3-chlorobenzenesulfonyl)4-piperazin-1-yl-1H-indole hydrochloride] the value was 0.2 to 1.58 nM; for `O=S(=O)(c1cccc(Cl)c1)n1ccc2c(N3CCNCC3)ccc(Cl)c21` [Example E152, 7-Chloro-1-(3-chlorobenzenesulfonyl)-4-piperazin-1-yl-1H-indole hydrochloride], 0.2 to 1.58 nM.
The same measure, in the same setting: for `O=S(=O)(c1cc(Cl)cc(Cl)c1)n1ccc2c(N3CCNCC3)ccc(Cl)c21` [Example E153, 7-Chloro-1-(3,5-dichlorobenzenesulfonyl)-4-piperazin-1-yl-1H-indole hydrochloride] the value was 0.2 to 1.58 nM; for `O=S(=O)(c1ccccc1)n1ccc2c(N3CCNCC3)ccc(Cl)c21` [Example E154, 1-Benzenesulfonyl-7-choro-4-piperazin-1-yl-1H-indole hydrochloride], 0.2 to 1.58 nM.
On to `O=S(=O)(c1cccc(Cl)c1)n1ccc2c(N3CCNCC3)ccc(Br)c21` [Example E156, 7-Bromo-1-(3-chlorobenzenesulfonyl)-4-piperazin-1-yl-1H-indole hydrochloride], for which the Ki is 0.2 to 1.58 nM.
Same read-out and setting: the figure for `N#Cc1ccc(N2CCNCC2)c2ccn(S(=O)(=O)c3cccc(Cl)c3)c12` [Example E157, 7-Cyano-1-(3-chlorobenzenesulfonyl)-4-piperazin-1-yl-1H-indole hydrochloride] is 0.2 to 1.58 nM.
The same measure, in the same setting: for `O=S(=O)(c1cccc(Cl)c1)n1cc(Cl)c2c(N3CCNCC3)c(Cl)ccc21` [Example E158, 1-(3-Chlorobenzenesulfonyl)-3,5-dichloro-4-piperazin-1-yl-1H-indole hydrochloride] the value was 0.2 to 1.58 nM.
Regarding `O=S(=O)(c1cccc(Cl)c1)n1ccc2c(N3CCNCC3)c(Cl)cc(Cl)c21` [Example E159, 1-(3-Chlorobenzenesulfonyl)-5,7-dichloro piperazin-1-yl-1H-indole hydrochloride], the Ki was in the range of 0.2 to 1.58 nM.
On the same count and under the same terms, the figure for `O=S(=O)(c1cccc(Cl)c1)n1ccc2c(N3CCNCC3)c(F)ccc21` [Example E163, 1-(3-Chlorobenzenesulfonyl)-5-fluoro-4-piperazin-1-yl-1H-indole hydrochloride] is 0.2 to 1.58 nM; for `Cc1cc2c(N3CCNCC3)cccc2n1S(=O)(=O)c1cccc(Cl)c1` [Example E165, 1-(3-Chlorobenzenesulfonyl)-2-methyl-4-piperazin-1-yl-1H-indole hydrochloride] it is 0.2 to 1.58 nM; for `O=S(=O)(c1cccc(Cl)c1)n1ccc2c(N3CCNCC3)cc(Cl)cc21` [Example E166, 6-Chloro-1-(3-chlorobenzenesulfonyl)-4-piperazin-1-yl-1H-indole hydrochloride] it is 0.2 to 1.58 nM.
Same read-out and setting: for `Cc1cn(S(=O)(=O)c2cccc(Cl)c2)c2cccc(N3CCNCC3)c12` [Example E167, 1-(3-Chlorobenzenesulfonyl)-3-methyl-4-piperazin-1-yl-1H-indole hydrochloride] the value was 0.2 to 1.58 nM; for `N#Cc1cc(Br)ccc1S(=O)(=O)n1ccc2c(N3CCNCC3)cccc21` [Example E171, 1-(4-Bromo-2-cyanobenzenesulfonyl)-4-piperazin-1-yl-1H-indole hydrochloride], 0.2 to 1.58 nM.
Still for that read-out and setting: the figure for `COc1ccc2c(ccn2S(=O)(=O)c2cccc(Cl)c2)c1N1CCNCC1` [Example E172, 1-(3-Chlorobenzenesulfonyl)-5-methoxy-4-piperazin-1-yl-1H-indole hydrochloride] is 0.2 to 1.58 nM.
As to `COc1ccc(N2CCNCC2)c2ccn(S(=O)(=O)c3cccc(Cl)c3)c12` [Example E173, 1-(3-Chlorobenzenesulfonyl)-7-methoxy-4-piperazin-1-yl-1H-indole hydrochloride], the Ki is 0.2 to 1.58 nM.

The same test, now with this note: human cloned 5-HT6 receptors; procedures of WO 98/27081; read-out: pKi at human cloned 5-HT6 receptors (converted).
`O=S(=O)(c1ccc2ccccc2c1)n1ccc2c(N3CCNCC3)c(Cl)ccc21` [Example E77, 5-Chloro-1-(naphthalene-2-sulfonyl)-4-piperazin-1-yl-1H-indole trifluoroacetic acid salt]: the Ki is 0.2 to 1.58 nM.
Still for that read-out and setting: the figure for `COc1c(Cl)cc(Cl)cc1S(=O)(=O)n1ccc2c(N3CCNCC3)c(Cl)ccc21` [Example E78, 5-Chloro-1-(3,5-dichloro-2-methoxybenzenesulfonyl)-4-piperazin-1-yl-1H-indole trifluoroacetic acid salt] is 0.2 to 1.58 nM; for `CN1CCN(c2cccc3c2ccn3S(=O)(=O)c2cccc(Br)c2)CC1` [Example E82] it is 0.2 to 1.58 nM.
On to `CN1CCN(c2cccc3c2ccn3S(=O)(=O)c2cc(Br)c(Cl)s2)CC1` [Example E85], for which the Ki was 0.2 to 1.58 nM.
For `CN1CCN(c2cccc3c2ccn3S(=O)(=O)c2cccc(Cl)c2)CC1` [Example E87], the Ki was 0.2 to 1.58 nM.
On the same count and under the same terms, for `CN1CCN(c2cccc3c2ccn3S(=O)(=O)c2ccc3ccccc3c2)CC1` [Example E90] the value was 0.2 to 1.58 nM; for `CN1CCN(c2cccc3c2ccn3S(=O)(=O)c2ccccc2C(F)(F)F)CC1` [Example E91], 0.2 to 1.58 nM; for `CN1CCN(c2cccc3c2ccn3S(=O)(=O)c2cccc(C(F)(F)F)c2)CC1` [Example E93], 0.2 to 1.58 nM.
Consider `CN1CCN(c2cccc3c2ccn3S(=O)(=O)c2ccccc2)CC1` [Example E94], for which the Ki was 0.2 to 1.58 nM.
On the same count and under the same terms, the figure for `CN1CCN(c2cccc3c2ccn3S(=O)(=O)c2cc(Cl)cc(Cl)c2)CC1` [Example E99] is 0.2 to 1.58 nM; for `CN1CCN(c2cccc3c2ccn3S(=O)(=O)c2ccc(F)c(Cl)c2)CC1` [Example E100] it is 0.2 to 1.58 nM.
As for `CN1CCN(c2cccc3c2ccn3S(=O)(=O)c2ccccc2Br)CC1` [Example E103], the Ki was 0.2 to 1.58 nM.
Take `O=S(=O)(c1ccccc1C(F)(F)F)n1ccc2c(N3CCNCC3)cccc21` [Example E115]: the Ki is 0.2 to 1.58 nM.
Still for that read-out and setting: the figure for `O=S(=O)(c1cccc(C(F)(F)F)c1)n1ccc2c(N3CCNCC3)c(Cl)ccc21` [Example E139, 5-Chloro-1-(3-trifluoromethyl-benzenesulfonyl)-4-piperazin-1-yl-1H-indole hydrochloride] is 0.2 to 1.58 nM; for `O=S(=O)(c1ccc(Cl)cc1OC(F)(F)F)n1ccc2c(N3CCNCC3)cccc21` [Example E168, 1-(4-Chloro-2-trifluoromethoxybenzenesulfonyl)-4-piperazin-1-yl-1H-indole hydrochloride] it is 0.2 to 1.58 nM.
The same measure, in the same setting: for `N#Cc1cc(Br)ccc1S(=O)(=O)n1ccc2c(N3CCNCC3)c(Cl)ccc21` [Example E170, 1-(4-Bromo-2-cyanobenzenesulfonyl)-5-chloro-4-piperazin-1-yl-1H-indole hydrochloride] the value was 0.2 to 1.58 nM.
On the same count and under the same terms, for `O=S(=O)(c1cccc(Cl)c1)n1ccc2c(N3CCCNCC3)ccc(Cl)c21` [Example E175, 7-Chloro-1-(3-chlorobenzenesulfonyl)-4-[1,4]diazepan-1-yl-1H-indole hydrochloride] the value was 0.2 to 1.58 nM.
